Like-named read-outs stand apart in the source and are kept apart here.
Tests used:
MIAPaCa-2 cells [1] = assay: MTT cell viability assay, MIAPaCa-2; type: cell-based, human
Method: (§1) Cell viability assay: The cell viability was determined by the standard MTT assay method. Briefly, Panc-1, HCT-116, A549, PC3, MIAPaca-2, HT-29, MDA-MB-231, MCF7 cells, and fR2cells were seeded in 96 well tissue culture plates (Nunc) at a density of 4×10^3 cells per well and treated with varying concentrations of the test compounds in triplicates. DMSO was taken as a vehicle, and its final concentration was maintained at 0.2% in the culture medium. Doxorubicin was employed as a positive control. After 44 h of incubation, MTT dye solution was added into the medium, and cells were incubated for another 4 h at 37° C. in 5% CO2. The amount of colored formazan derivatives formed was measured by taking optical density (OD) using a microplate reader (TECAN, Infinite M200 Pro) at 570 nm, and the percentage of cell viability was calculated. The IC50 values were calculated using GraphPad Prism software (Version 5.0).

HCT-116 cells = assay: MTT cell viability assay, HCT-116; type: cell-based; conditions: colorectal adenocarcinoma cells
Method: as §1

[2] = test system: human colorectal adenocarcinoma cell line (HT-29); assay: MTT cell viability assay, HT-29; type: cell-based; conditions: human colorectal adenocarcinoma cell line
Method: as §1

MCF-7 cells = assay: MTT cell viability assay, MCF-7; type: cell-based; conditions: breast cancer cell of epithelial origin
Method: as §1

Panc-1 cells = assay: MTT cell viability assay, Panc-1; type: cell-based; conditions: pancreatic cancer cells
Method: as §1

PC3 cells = assay: MTT cell viability assay, PC3; type: cell-based
Method: as §1

[3] = test system: lung adenocarcinoma cells (A549); assay: MTT cell viability assay, A549; type: cell-based
Method: as §1

[4] = test system: 4T1 mouse mammary carcinoma cells; assay: 4T1 allograft breast cancer model, anti-tumor and anti-metastatic efficacy; type: in vivo; conditions: tumor lysate immunoblot, 30 mg/kg
Method: In vivo anti-metastatic and anti-tumor efficacy studies. 4T1 mouse mammary carcinoma cells is a highly aggressive cell line that forms tumors when grafted in Balb/c mice. […] All the in vivo experimental protocols were approved by the Institutional Animal Ethics Committee, CPCSEA, of the Indian Institute of Integrative Medicine, Jammu. The animals were maintained at 22° C. with a 12 h light-dark cycle and free access to feed and water inside the institutional animal house. Proper care was taken to maintain them in a healthy condition and to avoid any risk of possible pathogenic contaminations. For subcutaneous implantation of 4T1 cells, the Balb/c mice were distributed into four groups bearing five mice in each group. For tumor induction, 1.5 million 4T1 cells were suspended in serum-free media and injected into the mammary pad of the animal and kept in the animal house for tumor induction. After the tumor reached an adequate size (30-150 mm^3) the mice in the allotted groups were treated with vehicle (normal saline), 15 and 30 mg/kg 2a & 30 mg/kg DIM (positive control) for every alternate day and was continued for two weeks. After the treatment, the mice were sacrificed by cervical dislocation, and the tumor was dissected out from the mammary pad, the tumor volume was measured, and images were taken. Subsequently, to examine the anti-metastatic property of the compound 2a, the chest cavity was dissected to remove the lungs, and after washing with PBS, the metastatic nodules in the lung due to 4T1 migration were checked and subsequently counted.
The anti-proliferative as well as anti-metastatic role of compound 2a was studied in 4T1 allograft breast cancer model. Briefly, 1.5×10^6 4T1 mammary breast cancer cells were injected in mouse mammary pad and kept undisturbed until the formation of tumor. Subsequently, the mice were treated with 15 and 30 mg/kg of compound 2a along with a positive control 30 mg/kg di-indoyl methane (DIM) molecule and normal saline as vehicle. The drugs were administered intraperitonially for each alternate day for 2 weeks. The animals were sacrificed and tumours were harvested from the mammary pad and tumor weight was measured (FIG. 7a & b). Moreover, the lungs were also removed and photographed to study the presence of metastatic patches. […] Furthermore, the tumors were subjected to tissue lysis and immunoblot analysis was performed to study the expression of Snail-1. Twist-1, STAT-3, Vimentin and E-cadherin.

[5] = MTT cell viability assay, fR2 normal epithelial cells; type: cell-based, human; conditions: human, fR2 normal epithelial cells; MTT, 48 h; normal epithelial cell line; read-out: Cytotoxicity (IC50) fR2
Method: as §1

MIAPaCa-2 cells [6] = assay: Cell scatter assay; type: cell-based, human; conditions: MIAPaCa-2, 1, 2, 3 μM, 36 h, compared to vehicle and parent molecule
Method: Cell scatter assay MIAPaCa-2 cells were seeded onto a 12 well plate at a seeding density of 500 cells/well and kept for 4-5 days, and there was the formation of scatter colonies since the cell line itself is a metastatic cell line. Accordingly, they were treated with 1 μM, 2 μM & 3 μM of compound 2, 2a, 2b, 3, 3a, 4, 4a & 4b for 36 h, and upon termination, they were washed with PBS and observed under an inverted microscope at 20× magnification (FIG. 3).

[7] = Homo sapiens, MIA PaCa-2, 48 h, read-out: Cytotoxicity (IC50) MIAPaCa-2, MTT, 48 h
[8] = Homo sapiens, HCT-116, 48 h, read-out: Cytotoxicity (IC50) HCT-116, MTT, 48 h
[9] = Homo sapiens, HT-29, 48 h, read-out: Cytotoxicity (IC50) HT-29, MTT, 48 h
[10] = Homo sapiens, MCF7, 48 h, read-out: Cytotoxicity (IC50) MCF-7, MTT, 48 h
[11] = Homo sapiens, PANC-1, 48 h, read-out: Cytotoxicity (IC50) Panc-1, MTT, 48 h
[12] = Homo sapiens, PC-3, 48 h, read-out: Cytotoxicity (IC50) PC3, MTT, 48 h
[13] = Homo sapiens, A549, 48 h, read-out: Cytotoxicity (IC50) A549, MTT, 48 h
[14] = MTT, 48 h, read-out: Cytotoxicity (IC50) MIAPaCa-2
[15] = MTT, 48 h, read-out: Cytotoxicity (IC50) HCT-116
[16] = MTT, 48 h, read-out: Cytotoxicity (IC50) HT-29
[17] = MTT, 48 h, read-out: Cytotoxicity (IC50) MCF-7
[18] = MTT, 48 h, read-out: Cytotoxicity (IC50) Panc-1
[19] = MTT, 48 h, read-out: Cytotoxicity (IC50) PC3
[20] = MTT, 48 h, read-out: Cytotoxicity (IC50) A549

Structure (SMILES)	IC50 (MIAPaCa-2 cells [1]; [7]) [µM]	IC50 (HCT-116 cells; [8]) [µM]	IC50 [2, 9] [µM]	IC50 (MCF-7 cells; [10]) [µM]	IC50 (Panc-1 cells; [11]) [µM]	IC50 (PC3 cells; [12]) [µM]	IC50 [3, 13] [µM]	IC50 (MIAPaCa-2 cells [1]; [14]) [µM]	IC50 (HCT-116 cells; [15]) [µM]	IC50 [2, 16] [µM]	IC50 (MCF-7 cells; [17]) [µM]	IC50 (Panc-1 cells; [18]) [µM]	IC50 (PC3 cells; [19]) [µM]	IC50 [3, 20] [µM]	further results
CCCCCc1cc(O)c2c(c1)OC(C)(C)c1ccc(C)cc1-2 (single isomer, unassigned) [Compound 4, Cannabinol, reference compound]	1.63	47.1	20.4	50.6	11.8	28	2.13	–	–	–	–	–	–	–	–
c1ccc2c(Cc3c[nH]c4ccccc34)c[nH]c2c1 [DIM, di-indoyl methane, reference compound]	–	–	–	–	–	–	–	–	–	–	–	–	–	–	tumor expression of Snail-1, STAT-3 and Vimentin (positive control) [4]: decreases significantly
CCCc1cc(O)c2c(c1)OC(C)(C)[C@@H]1CCC(C)=C[C@@H]21 [Compound 1, Δ^9-tetrahydrocannabivarin, reference compound]	–	–	–	–	–	–	–	23.2	10.7	46.2	> 100	9.28	88.2	39.4	–
CCCCCc1cc(O[C@@H]2OC(CO)[C@@H](O)C(O)C2O)c2c(c1)OC(C)(C)[C@@H]1CC=C(C)C[C@@H]21 (single isomer, unassigned) [Compound 3a, Δ^8-tetrahydrocannabinol-1-O-β-D-glucopyranoside]	0.742	30.2	10.7	34.9	–	38	–	–	–	–	–	–	–	–	IC50 (Panc-1 cells; read-out: Cytotoxicity (IC50) Panc-1, MTT, 48 h): 3.16 µM; IC50 ([3]; read-out: Cytotoxicity (IC50) A549, MTT, 48 h): 2.15 µM; IC50 at 48 h [5]: > 100 µM; cell scattering (MIAPaCa-2 cells [6]): did not prevent cell scattering
CCCc1cc(O[C@@H]2OC(CO)[C@@H](O)C(O)C2O)c2c(c1)OC(C)(C)[C@@H]1CC=C(C)C[C@@H]21 (stereo partly drawn) [Compound 1a, Δ^8-tetrahydrocannabivarin-1-O-β-D-glucopyranoside]	> 100	32.9	> 100	90.6	21.4	> 100	53.1	–	–	–	–	–	–	–	–
CCCCCc1cc(O)c2c(c1)OC(C)(C)[C@@H]1CC=C(C)C[C@@H]21 [Compound 3, Δ^8-tetrahydrocannabinol, reference compound]	–	–	–	–	–	–	–	2.46	27.3	> 100	26.7	50.9	28	11.6	–

Reference: patent publication US20240382509A1, “Cannabinoids C- and O-glycosides possessing anti-proliferative and anti-metastatic properties and process for preparation thereof” (Council of Scientific and Industrial Research, priority 2021, published 2024)
